Test results taken from patent publication US7741348B2, “Bisheterocycle tandem compounds useful as antiviral agents, the uses thereof and the compositions comprising such compounds” (Shanghai Institute of Materia Medica, Chinese Academy of …, priority 2005, dated 2010).

What was measured:
[1] = Cytotoxicity to HepG2.2.15 cells (MTT method); format: cell-based; conditions: human, HepG2.2.15 cells (HBV-transgenic human hepatoma cells), 50% death concentration, eighth day
Source text: (§1) Hepatitis B virus (HBV) transgenic human hepatoma carcinoma cell, HepG2.2.15 cell line, can secrete hepatitis B virus particles (containing antigen and DNA) into supernatant when being cultured.
(§2) Under action of antiviral drugs, the contents of HBsAg, HBeAg and viral DNA secreted from cells into the supernatant were detected and are compared with the contents of control groups without drugs, so that the antiviral activity of the compounds of the present invention can be measured as well as the cytotoxic effect of compounds of the present invention. The value concentration of the compounds of the present invention which caused 50% of cells dead and was measured with MTT method was CC50; and the value concentration of the compounds of the present invention which inhibited the secretion of HBsAg and HBeAg detected by ELISA method and inhibited 50% of viral DNA replication detected by fluorescent quantification PCR method was IC50.
(§3) HepG2.2.15 cells were inoculated on a 96-well plate, and the compounds of the present invention were added next day. The medium and the compound solutions of the same concentration were renewed periodically. The culture supernatants were collected on the eighth day to be detected. MTT was added to the cells on the 96-well plate, and MTT dissolving liquid was added after 4 hours to be reacted overnight. OD570 was measured next day on microplate reader. And the cytotoxicity of the compounds of the present invention to the HepG2.2.15 cells, the effect of the compounds of the present invention on the growth of the cells, and the concentration of the compound of the present invention (CC50) causing 50% of the cells dead were estimated according to the OD values.

hepatitis B virus (HBV) = assay: HBV-DNA replication in HepG2.2.15 culture supernatant (fluorescent quantification PCR); format: cell-based; conditions: for IC50: Hepatitis B virus, HepG2.2.15 supernatant, eighth day, fluorescent quantification PCR, read-out: DNA replication IC50; for DNA replication IC12: ICX: concentration with 12% inhibition of HBV-DNA replication
Source text: as §1, §2, §3
A suitable amount of culture supernatant was added into a same volume of virus extract solution, and was boiled after mixed uniformly, then centrifuged at 10000 rpm for 5 min under room temperature. A suitable amount of supernatant was collected for PCR amplification. Five HBV-DNA standard samples were used to set a standard curve. According to the obtained viral DNA replication value, the inhibition rates of HBV-DNA replication of the compound of the present invention at different concentrations were calculated, and then the half inhibition rates of the compounds were calculated to obtain IC50. For the samples that can not be calculated for IC50 value, they can be represented by ICX and given the corresponding concentration values.

SMILES	CC50 [1] [µM]	IC50 (hepatitis B virus (HBV)) [µM]	also measured
CC(C)Cc1cnc(-c2nccs2)o1 [Compound C208]	> 100	35.8	
c1ccc(-c2cnc(-c3cccs3)[nH]2)cc1 [Compound C226]	53.2	2.3	
c1ccc(-c2cnc(-c3cccs3)o2)cc1 [Compound C227]	> 100	1.4	
c1ccc(-c2cnc(-c3cccs3)s2)cc1 [Compound C243]	84.5	0.41	
CCOC(=O)c1nc(-c2cccs2)[nH]c1C1CC1 [Compound C262]	34.4	4.3	
CCOC(=O)c1nc(-c2nccs2)[nH]c1C1CC1 [Compound C263-1]	> 100	3.7	
CC(C)Cc1sc(-c2nccs2)nc1C(N)=O [Compound C267]			DNA replication IC89 (hepatitis B virus (HBV); ICX: concentration with 89% inhibition of HBV-DNA replication, IC50 not calculable): IC89 = 33 uM
CCOC(=O)c1nc(-c2nccs2)[nH]c1C1CCC1 [Compound C277]	> 100	3.1	
CCCCc1[nH]c(-c2nccs2)nc1C(=O)OCC [Compound C279-1]	94.7		DNA replication IC40 (hepatitis B virus (HBV); ICX: concentration with 40% inhibition of HBV-DNA replication, IC50 not calculable): IC40 = 12.4 uM
CCCCc1oc(-c2cccs2)nc1C(=O)OCC [Compound C279-2]	71.8	51.9	
CCOC(=O)c1nc(-c2cccs2)oc1CC(C)C [Compound C279-3]	> 100		
CCOC(=O)c1nc(-c2nccs2)oc1CC(C)C [Compound C280-1]	> 100		
CCCCc1oc(-c2nccs2)nc1C(=O)OCC [Compound C280-2]	> 100		DNA replication IC26 (hepatitis B virus (HBV); ICX: concentration with 26% inhibition of HBV-DNA replication, IC50 not calculable): IC26 = 0.41 uM
CNC(=O)c1nc(-c2nccs2)sc1CC(C)C [Compound C281]			DNA replication IC94 (hepatitis B virus (HBV); ICX: concentration with 94% inhibition of HBV-DNA replication, IC50 not calculable): IC94 = 33 uM
CCOC(=O)c1nc(-c2nccs2)[nH]c1C1CCCC1 [Compound C291]	> 100	5.5	
CCOC(=O)c1nc(-c2ccc(C)s2)[nH]c1CC(C)C [Compound C292]	139	4.65	
CCOC(=O)c1nc(-c2ccc(C)s2)oc1CC(C)C [Compound C293]	80	126	
CCCCc1sc(-c2cccs2)nc1C(=O)OCC [Compound C295-1]	50	11.7	
CC(C)Cc1sc(-c2nccs2)nc1C(=O)N(C)C [Compound C295-3]			DNA replication IC12 (hepatitis B virus (HBV); IC50 not calculable): IC12 = 1.23 uM
CCCCc1sc(-c2nccs2)nc1C(=O)OCC [Compound C296-2]	> 100		DNA replication IC12 (hepatitis B virus (HBV); IC50 not calculable): IC12 = 0.41 uM
CCOC(=O)c1nc(-c2cscn2)sc1CC(C)C [Compound C296-3]	116	0.14	
CCOC(=O)c1nc(-c2cccs2)[nH]c1C1CCCCC1 [Compound C304]	> 100	4.5	
CCOC(=O)c1nc(-c2cccs2)oc1C1CCCCC1 [Compound C305-1]	> 100	2.6	
CCOC(=O)c1nc(-c2nccs2)[nH]c1C1CCCCC1 [Compound C305-2]	> 100	4.1	
CCOC(=O)c1nc(-c2nccs2)oc1C1CCCCC1 [Compound C306]	> 100	0.8	
CCOC(=O)c1nc(-c2ccc(CC)s2)oc1CC(C)C [Compound C307]	80	22.5	
CCOC(=O)c1nc(-c2ccc(C)s2)sc1CC(C)C [Compound C309]	> 100		DNA replication IC14.2 (hepatitis B virus (HBV); ICX: concentration with 14.2% inhibition of HBV-DNA replication, IC50 not calculable): IC14.2 = 0.39 uM
CCOC(=O)c1nc(-c2ncc(C)s2)sc1CC(C)C [Compound C310]	> 100	0.14	
